Test results published in patent publication US20050209256A1, “Novel beta-turn mimetics as calcitonin gene related peptide receptor antagonists” (priority 2004, published 2005).

Target: T1, human CGRP receptor (Homo sapiens, UniProt O60894+Q16602)
T1 construct: SK-N-MC cells that endogenously express the human CGRP receptor; endogenous in cells; host or cells: SK-N-MC cells (membrane homogenates)
Test: Radioligand binding assay, [125I]-CGRP competition on SK-N-MC cell homogenates
Details: Binding data, [125I]-CGRP 40 pM, room temperature
Protocol: Tissue culture. SK-N-MC cells were grown at 37° C. in 5% CO2 as a monolayer in medium consisting of MEM with Earle's salts and L-glutamine (Gibco) supplemented with 10% fetal bovine serum (Gibco).
Radioligand binding assays. Cells were rinsed twice with phosphate-buffered saline (155 mM NaCl, 3.3 mM Na2HPO4, 1.1 mM KH2PO4, pH 7.4), and incubated for 5-10 min. at 4° C. in hypotonic lysis buffer consisting of 10 mM Tris (pH 7.4) and 5 mM EDTA. Cells were transferred from plates to polypropylene tubes (16×100 mm), homogenized and centrifuged at 32,000×g for 30 min. Pellets were resuspended in buffer consisting of 50 mM Tris (pH 7.4) and 1 mM EDTA, homogenized, and centrifuged again at 32,000×g for 30 min. Pellets were resuspended in 100 mM Tris-Cl pH 7.5, 10 mM MgCl2, 0.1% mammalian protease inhibitor cocktail (Sigma) and stored at −80° C. until needed. On the day of an experiment, homogenates were thawed and homogenized again. Binding of [^125I]-CGRP (NEN) was carried out in buffer containing 50 mM Tris-Cl pH 7.5, 5 mM MgCl2, 0.5% BSA. Homogenates (3.5 μg protein/well) were incubated with competitor compounds (solubilized in 100% DMSO at 100× their final assay concentrations) for one hour at room temperature. Then [^125I]-CGRP was added (40 pM final concentration) and the reaction incubated for one additional hour at room temperature. Assays were stopped by addition of cold wash buffer (20 mM Tris-Cl pH 7.5, 0.1% BSA) immediately followed by filtration over glass fiber filters (Whatman GF/B) previously soaked in 0.5% PEI. Non-specific binding was defined with 100 nM CGRP.

Row | Compound | IC50 [nM]
1 | CC(=O)c1ccc(NC(=O)N2CCC(=O)N3[C@@H](C(C)C)C(=O)N(CCc4cccc(F)c4)C[C@H]23)cc1 [Compound 20, (6S,9aS)-8-[2-(3-Fluoro-phenyl)-ethyl]-6-isopropyl-4,7-dioxo-hexahydro-pyrazino[1,2-a]pyrimidine-1-carboxylic acid (4-acetyl-phenyl)-amide] | 907
2 | CC(=O)c1ccc(NC(=O)N2CCC(=O)N3C(CS(=O)(=O)Cc4ccccc4)C(=O)N(CCc4cccc(F)c4)C[C@H]23)cc1 (stereo in doubt) [Compound 45, (6S,9aS)-8-[2-(3-Fluoro-phenyl)-ethyl]-4,7-dioxo-6-phenylmethanesulfonylmethyl-hexahydro-pyrazino[1,2-a]pyrimidine-1-carboxylic acid (4-acetyl-phenyl)-amide] | 1940
3 | CC(=O)c1ccc(OC(=O)N2CCC(=O)N3[C@@H](C4CCCCC4)C(=O)N(CCc4ccccc4)C[C@H]23)cc1C [Compound 148, (6S,9aS)-6-Cyclohexyl-4,7-dioxo-8-phenethyl-hexahydro-pyrazino[1,2-a]pyrimidine-1-carboxylic acid 4-acetyl-3-methyl-phenyl ester] | 3900
4 | CC(=O)c1ccc(NC(=O)N2CCC(=O)N3[C@@H](C4CCNCC4)C(=O)N(CCc4cccc(F)c4)C[C@H]23)cc1 [Compound 43, (6S,9aS)-8-[2-(3-Fluoro-phenyl)-ethyl]-4,7-dioxo-6-piperidin-4-yl-hexahydro-pyrazino[1,2-a]pyrimidine-1-carboxylic acid (4-acetyl-phenyl)-amide] | 4000
5 | CSc1ccc(NC(=O)N2CCC(=O)N3[C@@H](C4CCCCC4)C(=O)N(CCc4ccccc4)C[C@H]23)cc1 [Compound 19, (6S,9aS)-6-Cyclohexyl-4,7-dioxo-8-phenethyl-hexahydro-pyrazino[1,2-a]pyrimidine-1-carboxylic acid (4-methylsulfanyl-phenyl)-amide] | 8000
6 | CC(=O)c1ccc(NC(=O)N2CCC(=O)N3[C@@H](C4CCCCC4)C(=O)N(CCc4cccc(Cl)c4)C[C@H]23)cc1 [Compound 135, (6S,9aS)-8-[2-(3-Chloro-phenyl)-ethyl]-6-cyclohexyl-4,7-dioxo-hexahydro-pyrazino[1,2-a]pyrimidine-1-carboxylic acid (4-acetyl-phenyl)-amide] | 7070
7 | CC[C@@H](C)[C@H]1C(=O)N(CCc2cccc(F)c2)C[C@@H]2N(C(=O)Nc3ccc(C(C)=O)cc3)CCC(=O)N12 [Compound 39, (6S,9aS)-6-(1R-methyl-propyl)-8-[2-(3-fluoro-phenyl)-ethyl]--4,7-dioxo-hexahydro-pyrazino[1,2-a]pyrimidine-1-carboxylic acid (4-acetyl-phenyl)-amide] | 233
8 | CC(=O)c1ccc(NC(=O)N2CCC(=O)N3[C@@H](C4CCCCC4)C(=O)N(CCc4ccncc4)C[C@H]23)cc1 [Compound 132, (6S,9aS)-6-Cyclohexyl-4,7-dioxo-8-(2-pyridin-4-yl-ethyl)-hexahydro-pyrazino[1,2-a]pyrimidine-1-carboxylic acid (4-acetyl-phenyl)-amide] | 8000
9 | CC(=O)c1ccc(NC(=O)N2CCC(=O)N3[C@@H]2CN(CCc2cccc(F)c2)C(=O)[C@@H]3CCCCNC(=O)OCc2ccccc2)cc1 [Compound 31, (4-{1-(4-Acetyl-phenylcarbamoyl)-(6S,9aS)-8-[2-(3-fluoro-phenyl)-ethyl]-4,7-dioxo-octahydro-pyrazino[1,2-a]pyrimidin-6-yl}-butyl)-carbamic acid benzyl ester] | 1050
10 | CC(O)c1ccc(NC(=O)N2CCC(=O)N3[C@@H]2CN(CCc2ccccc2)C(=O)[C@@H]3CC2CCCCC2)cc1 (stereo partly drawn) [Compound 145, (6S,9aS)-6-Cyclohexylmethyl-4,7-dioxo-8-phenethyl-hexahydro-pyrazino[1,2-a]pyrimidine-1-carboxylic acid [4-(1-hydroxy-ethyl)-phenyl]-amide] | 2730
11 | CC(=O)c1ccc(NC(=O)N2CCC(=O)N3[C@@H](c4cccc(F)c4)C(=O)N(CCc4cccc(F)c4)C[C@H]23)cc1 [Compound 152, (6S,9aS)-6-(3-Fluoro-phenyl)-8-[2-(3-fluoro-phenyl)-ethyl]-4,7-dioxo-hexahydro-pyrazino[1,2-a]pyrimidine-1-carboxylic acid (4-acetyl-phenyl)-amide] | 159
12 | CC(=O)c1ccc(NC(=O)N2CCC(=O)N3[C@@H](c4ccc(F)c(F)c4)C(=O)N(CCc4ccccc4)C[C@H]23)cc1 [Compound 59, (6S,9aS)-6-(3,4-Difluoro-phenyl)-4,7-dioxo-8-phenethyl-hexahydro-pyrazino[1,2-a]pyrimidine-1-carboxylic acid (4-acetyl-phenyl)-amide] | 271
13 | CC(=O)c1ccc(NC(=O)N2CCC(=O)N3[C@@H](c4ccccc4)C(=O)N(CCc4cccc(F)c4)C[C@H]23)cc1 [Compound 46, (6S,9aS)-8-[2-(3-Fluoro-phenyl)-ethyl]-4,7-dioxo-6-phenyl-hexahydro-pyrazino[1,2-a]pyrimidine-1-carboxylic acid (4-acetyl-phenyl)-amide] | 167
14 | CC(=O)c1ccc(NC(=O)N2CCC(=O)N3[C@@H]2CN(CCc2cccc(F)c2)C(=O)[C@@H]3Cc2cc(F)c(F)c(F)c2)cc1 [Compound 56, (6S,9aS)-8-[2-(3-Fluoro-phenyl)-ethyl]-4,7-dioxo-6-(3,4,5-trifluoro-benzyl)-hexahydro-pyrazino[1,2-a]pyrimidine-1-carboxylic acid (4-acetyl-phenyl)-amide] | 665
15 | CC(=O)c1ccc(NC(=O)N2CCC(=O)N3[C@@H](c4ccc(F)cc4F)C(=O)N(CCc4cccc(F)c4)C[C@H]23)cc1 [Compound 153, (6S,9aS)-6-(2,4-Difluoro-phenyl)-8-[2-(3-fluoro-phenyl)-ethyl]-4,7-dioxo-hexahydro-pyrazino[1,2-a]pyrimidine-1-carboxylic acid (4-acetyl-phenyl)-amide] | 320
16 | CC(=O)c1ccc(NC(=O)N2CCC(=O)N3[C@@H]2CN(CCc2cccc(F)c2)C(=O)[C@@H]3Cc2ccc(OCc3ccccc3)cc2)cc1 [Compound 33, (6S,9aS)-6-(4-Benzyloxy-benzyl)-8-[2-(3-fluoro-phenyl)-ethyl]-4,7-dioxo-hexahydro-pyrazino[1,2-a]pyrimidine-1-carboxylic acid (4-acetyl-phenyl)-amide] | 2260
17 | CC(=O)c1ccc(NC(=O)N2CCC(=O)N3[C@@H]2CN(CCc2cccc(F)c2)C(=O)[C@@H]3Cc2ccc([N+](=O)[O-])cc2)cc1 [Compound 27, (6S,9aS)-8-[2-(3-Fluoro-phenyl)-ethyl]-6-(4-nitro-benzyl)-4,7-dioxo-hexahydro-pyrazino[1,2-a]pyrimidine-1-carboxylic acid (4-acetyl-phenyl)-amide] | 1330
18 | CC(=O)c1ccc(OC(=O)N2CCC(=O)N3[C@@H]2CN(CCc2ccccc2)C(=O)[C@@H]3CC2CCCCC2)cc1C [Compound 146, (6S,9aS)-6-Cyclohexylmethyl-4,7-dioxo-8-phenethyl-hexahydro-pyrazino[1,2-a]pyrimidine-1-carboxylic acid 4-acetyl-3-methyl-phenyl ester] | 364
19 | NC(=O)c1ccc(NC(=O)N2CCC(=O)N3[C@@H]2CN(CCc2ccccc2)C(=O)[C@@H]3CC2CCCCC2)cc1 [Compound 111, (6S,9aS)-6-Cyclohexylmethyl-4,7-dioxo-8-phenethyl-hexahydro-pyrazino[1,2-a]pyrimidine-1-carboxylic acid (4-carbamoyl-phenyl)-amide] | 12000
